Test results published in patent US9040530B2, “1,2,4-triazine-6-carboxamide kinase inhibitors” (Portola Pharmaceuticals, Inc., priority 2012, dated 2015).

Molecular target: T1, full length active recombinant SYK enzyme (Homo sapiens, UniProt P43405)
T1 construct: full length active recombinant SYK enzyme (Millipore, Calif.); purchased Millipore
Assay: Inhibition of Syk tyrosine phosphorylation activity (LANCE TR-FRET kinase assay)
Type: biochemical
Settings: 1 nM active SYK enzyme, 550 nM SYK-substrate, 100 μM ATP, 1 hour at room temperature

SMILES	IC50 [nM]
Cn1cc(C#N)c2ccc(Nc3nc(N[C@@H]4CCCC(F)(F)[C@@H]4N)nnc3C(N)=O)cc21 [Example 173, 3-(((1R,2R)-2-amino-3,3-difluorocyclohexyl)amino)-5-((3-cyano-1-methyl-1H-indol-6-yl)amino)-1,2,4-triazine-6-carboxamide]	10 to 100
CN(C)c1ccc(Nc2nc(N[C@@H]3CCCC[C@@H]3N)nnc2C(N)=O)cc1Cl [Example 175, 3-(((1R,2S)-2-aminocyclohexyl)amino)-5-((3-chloro-4-(dimethylamino)phenyl)amino)-1,2,4-triazine-6-carboxamide]	1 to 10
NC(=O)c1nnc(N[C@@H]2CCCC[C@@H]2N)nc1Nc1cc(Cl)c2ncccc2c1 [Example 176, 3-(((1R,2S)-2-aminocyclohexyl)amino)-5-((8-chloroquinolin-6-yl)amino)-1,2,4-triazine-6-carboxamide]	< 1
CC[C@@H](Nc1nnc(C(N)=O)c(Nc2cc(Cl)c3ncccc3c2)n1)C(N)=O [Example 177, (R)-3-((1-amino-1-oxobutan-2-yl)amino)-5-((8-chloroquinolin-6-yl)amino)-1,2,4-triazine-6-carboxamide]	1 to 10
Cn1cc(C#N)c2ccc(Nc3nc(N[C@H](CC4CC4)C(N)=O)nnc3C(N)=O)cc21 [Example 178, (R)-3-((1-amino-3-cyclopropyl-1-oxopropan-2-yl)amino)-5-((3-cyano-1-methyl-1H-indol-6-yl)amino)-1,2,4-triazine-6-carboxamide]	1 to 10
Cn1cc2ccc(Nc3nc(N[C@@H]4CCCC[C@@H]4N)nnc3C(N)=O)cc2n1 [Example 181, 3-(((1R,2S)-2-aminocyclohexyl)amino)-5-((2-methyl-2H-indazol-6-yl)amino)-1,2,4-triazine-6-carboxamide]	1 to 10

Further lines, results first:

IC50 [nM]	SMILES
10 to 100	NC(=O)c1nnc(N[C@@H]2CCCC[C@@H]2N)nc1Nc1ccc(C(F)(F)F)cc1 [Example 168, 3-(((1R,2S)-2-aminocyclohexyl)amino)-5-((4-(trifluoromethyl)phenyl)amino)-1,2,4-triazine-6-carboxamide]
10 to 100	CC[C@@H](Nc1nnc(C(N)=O)c(Nc2ccc(C(F)(F)F)cc2)n1)C(N)=O [Example 169, (R)-3-((1-amino-1-oxobutan-2-yl)amino)-5-((4-(trifluoromethyl)phenyl)amino)-1,2,4-triazine-6-carboxamide]
1 to 10	NC(=O)c1nnc(N[C@@H]2CCCC[C@@H]2N)nc1Nc1cccc(C(F)(F)F)c1 [Example 170, 3-(((1R,2S)-2-aminocyclohexyl)amino)-5-((3-(trifluoromethyl)phenyl)amino)-1,2,4-triazine-6-carboxamide]
100 to 1000	CC[C@@H](Nc1nnc(C(N)=O)c(Nc2cccc(C(F)(F)F)c2)n1)C(N)=O [Example 171, (R)-3-((1-amino-1-oxobutan-2-yl)amino)-5-((3-(trifluoromethyl)phenyl)amino)-1,2,4-triazine-6-carboxamide]
1 to 10	Cn1cc(C#N)c2ccc(Nc3nc(N[C@@H]4CCOC[C@@H]4N)nnc3C(N)=O)cc21 [Example 172, 3-(((3R,4R)-3-aminotetrahydro-2H-pyran-4-yl)amino)-5-((3-cyano-1-methyl-1H-indol-6-yl)amino)-1,2,4-triazine-6-carboxamide]
10 to 100	CC[C@@H](Nc1nnc(C(N)=O)c(Nc2ccc(OC)c(Cl)c2)n1)C(N)=O [Example 174, (R)-3-((1-amino-1-oxobutan-2-yl)amino)-5-((3-chloro-4-methoxyphenyl)amino)-1,2,4-triazine-6-carboxamide]
1 to 10	CC[C@@H](Nc1nnc(C(N)=O)c(Nc2ccc3cn(C)nc3c2)n1)C(N)=O [Example 179, (R)-3-((1-amino-1-oxobutan-2-yl)amino)-5-((2-methyl-2H-indazol-6-yl)amino)-1,2,4-triazine-6-carboxamide]
1 to 10	CC[C@@H](Nc1nnc(C(N)=O)c(Nc2ccc3cnn(C)c3c2)n1)C(N)=O [Example 180, (R)-3-((1-amino-1-oxobutan-2-yl)amino)-5-((1-methyl-1H-indazol-6-yl)amino)-1,2,4-triazine-6-carboxamide]
